We go through 16 molecules from patent publication US11896704B2, “Compounds useful for the treatment and/or care of the skin, hair, nails and/or mucous membranes” (LUBRIZOL ADVANCED MATERIALS, INC., priority 2017, dated 2024).

The star is where a group is joined. Palmitoyl = CCCCCCCCCCCCCCCC(=O)*; NHhexadecyl = CCCCCCCCCCCCCCCCN*; NHHex = CCCCCCN*

The first experiment has as its system mitochondrial complex I (NADH dehydrogenase). As to the kind of experiment: Mitochondrial complex I activity in human dermal fibroblasts, colorimetric assay. The format is cell-based. As to conditions: HDFa, 10 mM, 48 hours, positive control. The method, then: Inhibition of Mitochondrial Complex I Activity Using an Assay Based on Colorimetric Detection. Human Dermal Fibroblasts from adult (HDFa, Life Technologies) are seeded at a density of 750.000 cells/75 cm^2 flask (one flask per condition) in culture medium M106 with Low Serum Growth Supplement (Life Technologies). Cells are grown during 8 days at 37° C. in 5% CO2 humidified air. Then, medium is removed and cells are treated with scalar dilutions of the peptide […] (PEP-1, H-[SEQ ID. NO. 2]-NH2) at 1, 0.5 and 0.1 mg/ml in culture medium during 48 hours at 37° C. in 5% CO2 humidified air. Non-treated cells incubated in culture medium alone are used as basal conditions. […] After 48 hours of treatment, cells are detached using trypsin and resuspended in 60 ul of Phosphate buffer saline (Sigma). Total protein concentration is measured by a Pierce BCA Protein Assay Kit (BCA Assay, Thermo Scientific) following manufacturer's protocol to adjust the final protein concentration between 700-1000 ug/ml. Briefly, standards and samples are dispensed and Working Reagent is added to the samples. After 30 minutes of incubation at 37° C., absorbance is measured with a microplate reader (Clariostar®, BMG) at 562 nm. Mitochondrial complex I activity is measured with Complex I enzyme activity microplate assay Kit (Abcam) according to the manufacture's protocol. This assay follows the oxidation of NADH to NAD coupled to the reduction of a specific colorimetric dye, leading to an increase in absorbance at 450 nm. In brief, 200 ul of each sample (adjusted to 700-1000 ug/ml of total protein amount) is incubated for 3 hours. After that, wells are washed several times and incubated with Assay Solution provided with the kit (composed by NADH and the specific dye). For the determination of mitochondrial complex I activity, colorimetric increase of Optical Density (OD) at 450 nm in a kinetic reaction along 1 hour is measured with a microplate reader (Clariostar©, BMG). Results are calculated as the rate of increase in OD at 450 nm between two points in the linear zone over time. The percentage of mitochondrial complex I activity relative to basal conditions after the treatment with […] (PEP-1, H-[SEQ ID. NO. 2]-NH2) is represented in Table 9. These values represent the mean for at least three independent assays.
In the case of `CN(C)C(=N)N=C(N)N` [Metformin, reference compound], the “Percentage of mitochondrial complex I activity relative to basal condition (%)” value was found to be 63.61%.

The test system of the next experiment is Human Dermal Fibroblasts (HDFa). As to the kind of experiment: Reactive oxygen species (ROS) levels in HDFa, fluorescence. The format is cell-based. The settings on record: 0.05 mM, 30 min, positive control. The method, then:
Evaluation of Reactive Oxygen Species (ROS) Levels on Human Dermal Fibroblasts (HDFa) by a Fluorescence Approach. Human Dermal Fibroblasts from adult (HDFa, Life Technologies) are seeded at a density of 10,000 cells/well (3 wells per condition) in 96-well plates in culture medium M106 with Low Serum Growth Supplement (LSGS, Life Technologies). Cells are grown during 24 hours at 37° C. in 5% CO2 humidified air. Then, medium is removed and cells are treated with the peptide […] (PEP-1, H-[SEQ ID. NO. 2]-NH2) during 16 hours at 37° C. in 5% CO2 humidified air. Non-treated cells incubated in treatment medium alone are used as basal conditions. […] After 30 min at 37° C. in 5% CO2 humidified air, cells are used to quantify ROS levels. ROS levels are quantified using a Cellular Reactive Oxygen Species Detection Assay Kit (Abcam) according to the manufacture's protocol. […] After the period of time, fluorescence signal is determined using Operetta® confocal microscope (PerkinElmer, Inc). Fluorescence intensities are measured using Mitotracker OrangeTM channel (Excitation Filter: 520-550 nm/Emission Filter: 560-630 nm) and are corrected by the determination of the number of nuclei per well. […]
On to `OO` [Hydrogen peroxide, Hydrogen Peroxide], for which the “Percentage of ROS level relative to basal control conditions (%)” value turned out to be 1309.23%.

The test system of a further experiment is JARID1A gene. The experiment in a line: JARID1A gene expression in synchronized human epidermal keratinocytes (HEKa), real time PCR arrays. The format is cell-based. As to conditions: 0.005 mg/ml, one experiment. The method, then: In Vitro Study of JARID1A Gene Expression in Synchronized Human Epidermal Keratinocytes from Adult (HEKa) Using Real Time PCR Arrays.
HEKa cells (Life Technologies) are seeded at 3.0×10^5 cells/well in 12-well plates (2 wells per condition) and incubated in culture medium, Keratinocyte growth medium supplemented with Mix C39016-CaCl2 solution (Promocell). For synchronization, cells were subjected to two alternative cycles of 12 hours each at 37° C. in 5% CO2 humidified air (day mode) and 33° C. in 5% CO2 humidified air (night mode). 12 hours after starting synchronization, cells are incubated with the peptides at 0.5 mg/ml or (5 μg/ml) in culture medium, depending on the toxicity effects of each peptide (non-toxic conditions are selected). Cells treated with medium alone are used as basal condition.
At the end of synchronization, cell lysates are collected at two different times: 7:30 hour (early morning point) and 11:30 hour (midday point). Briefly, cells are lysed directly in the wells, and RNA is purified following the protocol described on the RNeasy™ Mini kit (Qiagen) according to the manufacture's protocol. After RNA elution, quantification and analysis of purity of RNA samples are performed with a nanodrop (Thermo). For each sample, 3 μg of high quality RNA is retrotranscribed with iScript Advanced™ (BioRad) in a final volume of 20 μl. Complete reaction mix is incubated in a thermal cycler (Eppendorf) at 42° C. for 30 minutes, and the reaction is stopped at 85° C. for 5 minutes. Complementary DNA is amplified by qPCR in a real-time PCR thermocycler (BioRad) using SYBR Green Supermix™ (BioRad) in the 96-well plate for use with SYBR® Green (BioRad). SYBR Green binds to double-stranded DNA molecules and emits fluorescence which is quantified, and the fluorescence intensity is proportional to the amount of the product in the PCR reaction. Cycling conditions in BioRad CFX96™ instrument are: 95° C. for 3 minutes, followed by 40 cycles of denaturing at 95° C. for 5 seconds, annealing and elongation at 60° C. for 30 seconds. GAPDH (Glyceraldehyde 3-phosphate dehydrogenase), TBP (TATA box binding protein) and HRPT1 (hypoxanthine phosphoribosyltransferase 1) are used as endogenous controls. Fold change relative to the expression of the sample genes and reference genes is calculated using normalized expression (AA(Ct)) method using CFX Manager Software™ (BioRad).
Fold induction of JARID1A gene at 7:30 hour with respect to basal conditions at 7:30 hour for the samples tested are shown in Table 7. The data for fold induction represent the value of one experiment.
For “Palm-Phe-Trp-Met-Lys-Arg-Lys-Arg-Val-Pro-NH2 (Palmitoyl-FWMKRKRVP-NH2; SMILES CCCCCCCCCCCCCCCC(=O)N[C@@H](Cc1ccccc1)C(=O)N[C@@H](Cc1c[nH]c2ccccc12)C(=O)N[C@@H](CCSC)C(=O)N[C@@H](CCCCN)C(=O)N[C@@H](CCCNC(=N)N)C(=O)N[C@@H](CCCCN)C(=O)N[C@@H](CCCNC(=N)N)C(=O)N[C@H](C(=O)N1CCC[C@H]1C(N)=O)C(C)C) [PEP-2]”, the “Fold induction with respect to Basal condition at 7:30h (%)” value (“Fold induction … (%)” below) was determined as 122.22%. On the same count and under the same terms, with “Palm-Phe-Trp-Met-Lys-Arg-Lys-Arg-Val-Pro-OH (Palmitoyl-FWMKRKRVP-OH; SMILES CCCCCCCCCCCCCCCC(=O)N[C@@H](Cc1ccccc1)C(=O)N[C@@H](Cc1c[nH]c2ccccc12)C(=O)N[C@@H](CCSC)C(=O)N[C@@H](CCCCN)C(=O)N[C@@H](CCCNC(=N)N)C(=O)N[C@@H](CCCCN)C(=O)N[C@@H](CCCNC(=N)N)C(=O)N[C@H](C(=O)N1CCC[C@H]1C(=O)O)C(C)C) [PEP-5]” the figure was 121.55%.

The same experiment, now with this note: 0.5 mg/ml, one experiment.
In the case of “Ac-Phe-Trp-Met-Lys-Arg-Lys-Arg-Val-Pro-NH2 (Ac-FWMKRKRVP-NH2) [PEP-3]”, the “Fold induction … (%)” value is 126.63%. Same read-out and setting: then “Ac-Phe-Trp-Met-Lys-Arg-Lys-Arg-Val-Pro-OH (Ac-FWMKRKRVP-OH) [PEP-6]”, with 109.08%; and “H-Phe-Trp-Ile-Gln-Arg-Lys-His-Met-Pro-NH2 (H-FWIQRKHMP-NH2) [PEP-10]”, with 138.09%. On the same count and under the same terms, with “H-Phe-Trp-Leu-Arg-Arg-Lys-Lys-Ile-Pro-NH2 (H-FWLRRKKIP-NH2) [PEP-9]” the figure was 141.90%. Take “H-Phe-Trp-Leu-Lys-Arg-Lys-Arg-Val-Pro-NH2 (H-FWLKRKRVP-NH2) [PEP-11]”: the “Fold induction … (%)” value was 127.91%. On to “H-Phe-Trp-Met-Arg-Arg-Lys-Arg-Val-Pro-NH2 (H-FWMRRKRVP-NH2) [PEP-12]”, for which the “Fold induction … (%)” value is reported as 203.75%. Take “H-Phe-Trp-Met-Lys-Arg-Lys-Arg-Ile-Pro-NH2 (H-FWMKRKRIP-NH2) [PEP-14]”: the “Fold induction … (%)” value was 187.65%.

With “H-Phe-Trp-Met-Lys-Arg-Lys-Arg-Leu-Pro-NH2 (H-FWMKRKRLP-NH2) [PEP-15]”, the “Fold induction … (%)” value was 123.90%.

As to “H-Phe-Trp-Met-Lys-Arg-Lys-Arg-Val-Pro-NHC6H13 (H-FWMKRKRVP-NHHex; SMILES CCCCCCNC(=O)[C@@H]1CCCN1C(=O)[C@@H](NC(=O)[C@H](CCCNC(=N)N)NC(=O)[C@H](CCCCN)NC(=O)[C@H](CCCNC(=N)N)NC(=O)[C@H](CCCCN)NC(=O)[C@H](CCSC)NC(=O)[C@H](Cc1c[nH]c2ccccc12)NC(=O)[C@@H](N)Cc1ccccc1)C(C)C) [PEP-7]”, the “Fold induction … (%)” value is 159.64%. Turning to “H-Phe-Trp-Met-Lys-Arg-Lys-Arg-Val-Pro-NHC16H33 (H-FWMKRKRVP-NHhexadecyl; SMILES CCCCCCCCCCCCCCCCNC(=O)[C@@H]1CCCN1C(=O)[C@@H](NC(=O)[C@H](CCCNC(=N)N)NC(=O)[C@H](CCCCN)NC(=O)[C@H](CCCNC(=N)N)NC(=O)[C@H](CCCCN)NC(=O)[C@H](CCSC)NC(=O)[C@H](Cc1c[nH]c2ccccc12)NC(=O)[C@@H](N)Cc1ccccc1)C(C)C) [PEP-8]”, the “Fold induction … (%)” value turned out to be 113.64%. Still for that read-out and setting: with “H-Phe-Trp-Met-Lys-Arg-Lys-Arg-Val-Pro-OH (H-FWMKRKRVP-OH) [PEP-4]” the figure was 158.92%; with “H-Phe-Trp-Met-Lys-Arg-Lys-Lys-Val-Pro-NH2 (H-FWMKRKKVP-NH2) [PEP-13]”, 147.62%.
